Assay results published in US8598374B2, “GPR120 receptor agonists and uses thereof” (Metabolex, Inc, priority 2008, dated 2013).

Target: T1, human GPR120 (Homo sapiens, UniProt Q5NUL3)
T1 construct: Flag (DYKDDDDK) (N); host or cells: HEK293 cells co-expressing Gqi5
T1 sequence (Q5NUL3 1-361): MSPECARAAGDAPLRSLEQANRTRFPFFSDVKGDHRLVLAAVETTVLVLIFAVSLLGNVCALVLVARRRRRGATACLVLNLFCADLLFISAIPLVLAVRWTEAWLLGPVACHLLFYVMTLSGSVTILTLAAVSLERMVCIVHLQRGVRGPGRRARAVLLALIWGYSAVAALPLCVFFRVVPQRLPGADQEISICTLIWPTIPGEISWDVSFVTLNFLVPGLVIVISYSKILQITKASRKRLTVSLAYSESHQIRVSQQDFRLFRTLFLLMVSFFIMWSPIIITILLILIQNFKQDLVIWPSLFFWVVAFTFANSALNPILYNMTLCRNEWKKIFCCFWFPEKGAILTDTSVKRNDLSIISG
Assay: Intracellular Ca2+ assay (FLIPR Calcium 4, Flexstation) in human GPR120 stable cell line
Format: cell-based
Conditions: for % Activity (Ex. 25 Reference Compound): % activity at 2.5 μM compared to the maximal activity of the compound of Example 25 at 2.5 μM, HEK293 cells co-expressing Gqi5; for EC50: human GPR120 stably expressing cells, eight concentrations from 0.00001 to 20 μM
Method: Human GPR120 stable cell line was purchased from Multispan Inc (26219 Eden Landing Road, Hayward, Calif. 94545). This GPR120 cell line was generated in HEK293 cells co-expressing Gqi5. In this cell line, the Flag epitope tag (DYKDDDDK) was fused to the amino terminus of human GPR120 protein.
The concentration of intracellular Ca^2+ was measured as described below. Human GPR120 cells were plated in 96 well plates (Poly-D-Lysine coated black/clear Plate, Greiner Bio-One) at 70,000 cells per well and cultured overnight in conditions of 37° C. and 5% CO2. A Ca^2+ assay dye stock solution was prepared by adding 10 mL of assay buffer (HBSS/20 mM HEPES, pH 7.4) to FLIPR Calcium 4 Assay Bulk Kit (Molecular Devices). The 10 mL of Ca^2+ assay dye solution was prepared by further diluting 0.5 mL of Ca^2+ assay dye stock solution with 10 mL of assay buffer. The medium of the cells was removed and immediately 100 μL of the Ca^2+ assay dye solution was dispensed into each well followed by incubation at 37° C. and 5% CO2 for 50 minutes to incorporate the Ca^2+ dye into the cells. The cell plate was then placed in the Flexstation (Molecular Devices) for 20 minutes at 37° C. Compounds were dissolved in 100% DMSO and diluted to desired concentrations with assay buffer and placed in the Flexstation simultaneously with the cell plate for 20 minute incubation at 37° C. prior to reading. Fluorescence intensity was measured immediately following compound addition (25 μL/well) on the Flexstation at an excitation wavelength of 485 nm and an emission wavelength of 525 with 515 nm auto cutoff. The resulting increase in fluorescence intensities corresponds to increases in intracellular Ca^2+ levels.
Compounds were dissolved in 100% DMSO to a concentration of 20 mM to provide stock solutions. To determine activity against human GPR120, compounds were added with human GPR120 stably expressing cells (described above), at eight desired concentrations ranging from 0.00001 to 20 μM, in 96 well plates and fluorescence intensities were measured for 90 seconds with 2-second intervals. An EC50 value (concentration of the GPR120 agonist where 50% of the agonist's maximal activity is observed) was calculated using the changes (Max-Min) of fluorescence intensity.
To determine percent activity for a tested compound, the fluorescence intensity value obtained at a particular concentration were compared to the maximal fluorescence intensity value obtained for reference compound GW9508 (4-[[(3-phenoxyphenyl)methyl]amino]benzene propanoic acid; British Journal of Pharmacology 2006 148, 619-628) or the compound of Example 25. When GW9508 was used as the reference compound, the maximal activity of GW9508 at 6.7 μM was designated as 100% activity. When the compound of Example 25 was used as the reference compound, the maximal activity of the compound of Example 25 at 2.5 μM was designated as 100% activity. Typically, the GW9508 activity reached a maximum at a concentration of approximately 6.7 μM and typically the compound of Example 25 reached a maximum activity at approximately 2.5 μM.

Row | SMILES | % Activity (Ex. 25 Reference Compound) | EC50
1 | CC(Cc1ccc(OCc2c(F)ccc3c2CC(C)(C)O3)cc1)C(=O)O (stereo not shown) [Example 96, 3-(4-((5-fluoro-2,2-dimethyl-2,3-dihydrobenzofuran-4-yl)methoxy)phenyl)-2-methylpropanoic acid] | 124.82% | 
2 | CC1(C)Cc2cc(F)cc(COc3cc(F)c(CCC(=O)O)c(F)c3)c2O1 [Example 49, 3-(2,6-difluoro-4-((5-fluoro-2,2-dimethyl-2,3-dihydrobenzofuran-7-yl)methoxy)phenyl)propanoic acid] |  | 1 to 10 µM
3 | CC1(C)Cc2cc(Cl)cc(COc3ccc(C(C)(C)CC(=O)O)cc3)c2O1 [Example 156, 3-(4-((5-chloro-2,2-dimethyl-2,3-dihydrobenzofuran-7-yl)methoxy)phenyl)-3-methylbutanoic acid] | 148.87% | 
4 | CC(Cc1ccc(OCc2cc(F)cc3c2OC2(CCCC2)C3)cc1)C(=O)O (stereo not shown) [Example 162, 3-(4-((5-fluoro-3H-spiro[benzofuran-2,1′-cyclopentane]-7-yl)methoxy)phenyl)-2-methylpropanoic acid] | 154.48% | 
5 | CC1(C)Cc2cc(Cl)cc(COc3ccc4c(c3)CC[C@@H]4CC(=O)O)c2O1 [Example 179, (R)-2-(5-((5-chloro-2,2-dimethyl-2,3-dihydrobenzofuran-7-yl)methoxy)-2,3-dihydro-1H-inden-1-yl)acetic acid] | 105.44% | 
6 | CC(Cc1cc(F)c(OCc2cc(Cl)cc3c2OC(C)C3(C)C)c(F)c1)C(=O)O (stereo not shown) [Example 109, 3-(4-((5-chloro-2,3,3-trimethyl-2,3-dihydrobenzofuran-7-yl)methoxy)-3,5-difluorophenyl)-2-methylpropanoic acid] | 72.36% | 
7 | CC(=O)NCCOC(=O)C(C)Cc1ccc(OCc2cc(Cl)cc3c2OC(C)(C)C3)c(C(F)(F)F)c1 (stereo not shown) [Example 126, 2-acetamidoethyl 3-(4-((5-chloro-2,2-dimethyl-2,3-dihydrobenzofuran-7-yl)methoxy)-3-(trifluoromethyl)phenyl)-2-methylpropanoate] | 47.02% | 1 to 10 µM
8 | CC1(C)Cc2cc(F)cc(COc3ccc4c(c3)CCCC4CC(=O)O)c2O1 (stereo not shown) [Example 153, 2-(6-((5-fluoro-2,2-dimethyl-2,3-dihydrobenzofuran-7-yl)methoxy)-1,2,3,4-tetrahydronaphthalen-1-yl)acetic acid] | 106.81% | 
9 | [2H]C1([2H])c2cc(F)cc(COc3ccc(CC(C)C(=O)O)cc3)c2OC1(C)C (stereo not shown) [Example 145, 3-(4-((3,3-dideuterio-5-fluoro-2,2-dimethyl-2,3-dihydrobenzofuran-7-yl)methoxy)phenyl)-2-methylpropanoic acid] | 143.69% | 
10 | CC(Cc1cc(F)c(OCc2ccc(C(F)(F)F)c3c2OC(C)(C)C3)c(F)c1)C(=O)O (stereo not shown) [Example 32, 3-(4-((2,2-dimethyl-4-(trifluoromethyl)-2,3-dihydrobenzofuran-7-yl)methoxy)-3,5-difluorophenyl)-2-methylpropanoic acid] |  | 1 to 10 µM
11 | CC1(C)Cc2cc(F)cc(COc3c(F)cc(CC4CC4C(=O)O)cc3F)c2O1 (single isomer, unassigned) [Example 184A, 2-(3,5-difluoro-4-((5-fluoro-2,2-dimethyl-2,3-dihydrobenzofuran-7-yl)methoxy)benzyl)cyclopropanecarboxylic acid] | 95.58% | 
12 | CC(Cc1ccc(OCc2cc(Cl)cc3c2OC(C)(C)C3O)cc1)C(=O)O (stereo not shown) [Example 130, 3-(4-((5-chloro-3-hydroxy-2,2-dimethyl-2,3-dihydrobenzofuran-7-yl)methoxy)phenyl)-2-methylpropanoic acid] | 103.85% | 
13 | Cc1cc(OCC(=O)O)ccc1OCc1cc(Cl)cc2c1OC(C)(C)C2 [Example 103, 2-(4-((5-chloro-2,2-dimethyl-2,3-dihydrobenzofuran-7-yl)methoxy)-3-methylphenoxy)acetic acid] | 98.96% | 
14 | CC1(C)Cc2cc(F)cc(COc3ccc(CCC(=O)O)c(OC(F)(F)F)c3)c2O1 [Example 136, 3-(4-((5-fluoro-2,2-dimethyl-2,3-dihydrobenzofuran-7-yl)methoxy)-2-(trifluoromethoxy)phenyl)propanoic acid] | 140.51% | 
15 | CCc1cc(OCc2cc(F)cc3c2OC(C)(C)C3)c(F)cc1CCC(=O)O [Example 220, 3-(2-ethyl-5-fluoro-4-((5-fluoro-2,2-dimethyl-2,3-dihydrobenzofuran-7-yl)methoxy)phenyl)propanoic acid] | 115.86% | 
16 | Cc1nc2cccc(COc3c(F)cc(CC(C)C(=O)O)cc3F)c2o1 (stereo not shown) [Example 261, 3-(3,5-difluoro-4-((2-methylbenzo[d]oxazol-7-yl)methoxy)phenyl)-2-methylpropanoic acid] | 108.78% | 
17 | CC(Cc1ccc(OCc2cc(F)cc3c2OCOC3)cc1)C(=O)O (stereo not shown) [Example 45, 3-(4-((6-fluoro-4H-benzo[d][1,3]dioxin-8-yl)methoxy)phenyl)-2-methylpropanoic acid] | 79.58% | 
18 | CC(Cc1ccc(OCc2cc(-n3cnnn3)cc3c2OC(C)(C)C3)cc1)C(=O)O (stereo not shown) [Example 90, 3-(4-((2,2-dimethyl-5-(1H-tetrazol-1-yl)-2,3-dihydrobenzofuran-7-yl)methoxy)phenyl)-2-methylpropanoic acid] | 75.86% | 1 to 10 µM
19 | [2H]C1([2H])c2cc(Cl)cc(COc3ccc(CC(C)C(=O)O)cc3F)c2OC1(C)C (stereo not shown) [Example 146, 3-(4-((3,3-dideuterio-5-chloro-2,2-dimethyl-2,3-dihydrobenzofuran-7-yl)methoxy)-3-fluorophenyl)-2-methylpropanoic acid] | 140.72% | 
20 | CC(C)Oc1ncccc1COc1ccc2c(c1)CCC2CC(=O)O (stereo not shown) [Example 259, 2-(5-((2-isopropoxypyridin-3-yl)methoxy)-2,3-dihydro-1H-inden-1-yl)acetic acid] | 118.5% | 
21 | Cc1cc(CCC(=O)O)c(C)c(C)c1OCc1cc(F)cc2c1OC(C)(C)C2 [Example 254, 3-(4-((5-fluoro-2,2-dimethyl-2,3-dihydrobenzofuran-7-yl)methoxy)-2,3,5-trimethylphenyl) propanoic acid] | 146.14% | 
22 | CC(Cc1ccc(OCc2ccc(F)c3c2CC(C)(C)O3)cc1)C(=O)O (stereo not shown) [Example 91, 3-(4-((7-fluoro-2,2-dimethyl-2,3-dihydrobenzofuran-4-yl)methoxy)phenyl)-2-methylpropanoic acid] | 121.29% | 1 to 10 µM
23 | CC1(C)Cc2cc(F)cc(COc3ccc(CCC(=O)O)c4c3CCC4)c2O1 [Example 63, 3-(7-((5-fluoro-2,2-dimethyl-2,3-dihydrobenzofuran-7-yl)methoxy)-2,3-dihydro-1H-inden-4-yl)propanoic acid] | 95.03% | 1 to 10 µM
24 | C[C@H](Cc1ccc(OCc2cc(Cl)cc3c2OC(C)(C)C3)c(F)c1)C(=O)O [Example 141, (R)-3-(4-((5-chloro-2,2-dimethyl-2,3-dihydrobenzofuran-7-yl)methoxy)-3-fluorophenyl)-2-methylpropanoic acid] | 143.3% | 
